pIC50: −log10 of the molar value.
Assays:
[1] = Antioxidant activity assessed as DPPH radical scavenging activity at 100 uM after 60 mins by spectrophotometry; format: physicochemical; details: 1 h
[2] = Antioxidant activity assessed as DPPH radical scavenging activity at 100 uM after 20 mins by spectrophotometry; format: physicochemical
[3] = Antioxidant activity assessed as inhibition of AAPH-induced linoleic acid lipid peroxidation at 100 uM; format: physicochemical
[4] = molecular target: Lipoxygenase (Glycine max, UniProt Q39829); assay: Inhibition of soybean LOX assessed as reduction in conversion of sodium linoleate to 13-hydroperoxylinoleic acid by UV spectroscopy; details: for pIC50: read-out: IC50
[5] = molecular target: Lipoxygenase (Glycine max) (UniProt Q39829); assay: Inhibition of soybean LOX assessed as reduction in conversion of sodium linoleate to 13-hydroperoxylinoleic acid at 100 uM by UV spectroscopy

| inhibition (INH) [1] [%] | inhibition (INH) [2] | inhibition (INH) [3] [%] | IC50 [4] | pIC50 [4] | inhibition [5] [%] | SMILES |
| --- | --- | --- | --- | --- | --- | --- |
| 2 | 13% | 58 | – | – | – | COc1ccc(-c2c(C)c3cc(Br)cc(Br)c3oc2=O)cc1OC |
| 9 | Not Active | 50 | Not Active | – | – | COc1ccc(-c2c(C)c3cc(Cl)ccc3oc2=S)cc1OC |
| 68 | 67% | 92 | – | 4.12 | – | CC(C)=CCOc1ccc(-c2c(C)c3cc(Br)ccc3oc2=O)cc1OCC=C(C)C |
| 12 | 11% | 56 | – | 4.09 | – | COc1ccc(-c2cc3cc(Br)ccc3oc2=O)cc1OC |
| 21 | 26% | 96 | – | 4.19 | – | COc1ccc(-c2c(C)c3cc(Br)ccc3oc2=S)cc1OC |
| 86 | 85% | 55 | – | – | 28 | COc1ccc(-c2c(C)c3cc(Br)ccc3o/c2=N/Nc2ccccc2)cc1OC |
| 68 | 11% | 64 | – | – | 1 | COc1ccc(-c2c(C)c3cc(-c4ccc(C=O)cc4)ccc3oc2=O)cc1OC |
| 62 | 77% | 75 | – | 4.12 | – | Cc1c(-c2ccc(O)c(O)c2)c(=O)oc2ccc(Br)cc12 |
| 7 | 17% | 7 | – | – | 44 | COc1ccc(-c2ccc3oc(=O)c(-c4ccc(OC)c(OC)c4)c(C)c3c2)cc1 |

Continued, compound first:

| SMILES | inhibition (INH) [1] [%] | inhibition (INH) [2] | inhibition (INH) [3] [%] | IC50 [4] | pIC50 [4] | inhibition [5] [%] |
| --- | --- | --- | --- | --- | --- | --- |
| COc1ccc(-c2c(C)c3ccccc3o/c2=N/Nc2ccccc2)cc1 | 85 | 84% | 47 | Not Active | – | – |
| Cc1c(-c2ccc(O)c(O)c2)c(=S)oc2ccc(Br)cc12 | 35 | 41% | 59 | – | 4.05 | – |
| CC(C)=CCOc1ccc(-c2cc3cc(Br)ccc3oc2=O)cc1OCC=C(C)C | 5 | Not Active | 99 | – | 4.40 | – |
| O=c1oc2ccc(Br)cc2cc1-c1ccc(O)c(O)c1 | 80 | 78% | 26 | – | – | 26 |
| COc1ccc(-c2c(C)c3ccccc3oc2=S)cc1 | 11 | 14% | 11 | – | – | 35 |
| Cc1c(C)c2c(c(C)c1O)CCC(C)(C(=O)O)O2 (configuration not stated) [TROLOX] | – | – | 63 | – | – | – |
| Cc1c(-c2ccc(O)c(O)c2)c(=O)oc2c(Br)cc(Br)cc12 | 78 | 76% | 75 | – | – | 7 |
| CC(Cc1ccc(O)c(O)c1)C(C)Cc1ccc(O)c(O)c1 (configuration not stated) [NORDIHYDROGUAIARETIC ACID] | 83 | 84% | – | – | 4.29 | – |
| CC(C)=CCOc1ccc(-c2c(C)c3cc(Br)cc(Br)c3oc2=O)cc1OCC=C(C)C | 9 | Not Active | 100 | – | 4.43 | – |
